Source: patent publication US10975063B2, “Compound, and production method thereof, and methods of treatment using the compound” (ABIVAX, priority 2009, dated 2021)

tested on: LMNA aberrant splicing (MutLMNA-luc cell line); assay: Luciferase assay for repression of LMNA aberrant splicing in stable 293 MutLMNA-luc cell line (293FLP LMNA LUC cells #8); assay type: cell-based; details: 48 hours, compared to control untreated MutLMNA-luc cell line, read-out: Increase of luciferase activity
Source text: Advantage has been taken of the luciferase system. The luciferase assay is an extremely sensitive and rapid assay. Linear results are seen over at least eight orders of magnitude of enzyme concentration. Moreover, the luciferase assay is well suited for high-throughput applications. To conduct a Mid-throughput screening (MTS) for compounds repressing LMNA aberrant splicing, we have constructed a plasmid in which exon 11, intron 11 and part of exon 12 of LMNA gene were fused with luciferase cDNA (FIG. 2). Both wild type (WtLMNA-luc)(SEQ ID NO: 1) and mutant (MutLMNA-luc)(SEQ ID NO: 2) substrate harbouring exon 11 mutation have been constructed. In these constructs we have generated a single initiation codon in exon 11 such as correct splicing will lead to luciferase expression, while aberrant splicing will skip the initiation codon and thereby prevent luciferase expression. After transfection in HeLa cells, Luciferase assays (FIG. 2B) and RT-PCR (FIG. 2C) indicate that WtLMNA-luc produces predominantly wild type splicing and large amount of luciferase activity, whereas MutLMNA-luc recapitulate the aberrant splicing profile with reduced luciferase expression (FIGS. 2 B and C, compare Wt and Mut). In order to use this system in MTS, we have generated a stable 293 cell lines containing a single integrated copy of luciferase reporter containing LMNA mutation (MutLMNA-luc cell line) using the flp system from INVITROGEN. This system allows us to perform a MTS for compounds able to enhance luciferase activity.
LMNA sequences (1278 bp of exon 11, intron 11 and 46 bp of […]) were PCR-amplified from either control or patient's cells genomic DNA with specific primer PCR fragments were purified with Concert Rapid PCR purification system (Invitrogen) and subcloned at the BamHI and EcoRI restriction sites of the pSppβm3 S1 plasmid containing the βGlobin cassette (Labourier et al., 1999—Recognition of exonic splicing enhancer sequences by the Drosophila splicing repressor RSF1. Nucleic Acids Res. 27, 2377-2386) to give the βGlo3S1LMNAwt and βGlo3S1LMNAmut constructs. The chimeric (3Glo-LMNA sequences were then inserted into the pcDNA3.1D/V5-His-TOPO vector (Invitrogen) to be used in transfection and in vitro splicing experiments. A single initiation codon ATG was kept in exon 11 of LMNA and LMNA sequences described above were fused at their 3′ end to Fyrefly luciferase cDNA (LMNAlucWT) in order that removal of intron 11 generates a transcript that encode a fusion protein harbouring luciferase activity, whereas usage of the cryptic splice site of mutated exon 11 (LMNAlucMut) will remove the initiation codon preventing luciferase expression. Both sequences were cloned in pcDNA3 Flp-In vector (Invitrogen).
A stable 293 cell line containing a single copy of LMNAlucMut minigene was obtained using the Flp-In system from (Invitrogen) according to manufacture procedure. Several clones were obtained and only one clone was used to screen the whole chemical library (293FLP LMNA LUC cells #8).
In a 96 Well Plate sterile, V-shape one put […] of drug compounds at 50 mM and then add 49.5 μl of 10% DMSO.
One pipets […] of drug at 500 μM and adds 200 μL of DMEM+Hygromycin B. At this stage the concentration of drug compound is 10 μM. One shares out 100 μl in a 96 Well Microplate sterile, flat bottom (further called luciferase plate) and 50 μl in other one (further called toxicity plate).
One washes 293FLP LMNA LUC cells once with D-PBS then adds 1 ml trypsin EDTA. Incubation at 37° C. for 2-3 minutes is proceeded. Then one adds 9 ml DMEM (with 10% FCS, P/S).
Cell concentration is brought at 10^5 cells per ml with DMEM+Hygromycin B to have 10^4 cells per 100 μl.
100 μl of suspension cells is added (at 10^4 cells per 100 μl) so final concentration of compounds is […].
Medium of the wells is gently removed then washed once by adding slowly 150 μl of D-PBS 1×. D-PBS is removed. 40 μl of PLB 1× is added and incubated at RT for 30 minutes. […]

Structure (SMILES) | fold induction at 5 µM
O=C(O)c1ccnc(Nc2ccc3ccccc3n2)c1 [Compound 2, 2-(Quinolin-2-ylamino)-isonicotinic acid] | 3.77
Cc1ccnc(Nc2ccc3ccccc3n2)c1 [Compound 3, (4-Methyl-pyridin-2-yl)-quinolin-2-yl-amine] | 4.54
c1ccc(Nc2ccc3ccccc3n2)nc1 [Compound 4, Pyridin-2-yl-quinolin-2-yl-amine] | 4.43
O=C(O)c1ccnc(Nc2ccc3cccc(Cl)c3n2)c1 [Compound 5, 2-(8-Chloro-quinolin-2-ylamino)-isonicotinic acid] | 2.02
N#Cc1ccc(Nc2ccc3ccccc3n2)nc1 [Compound 7, 6-(Quinolin-2-ylamino)-nicotinonitrile] | 3.33
FC(F)(F)Oc1ccc(Nc2ccc3ccccc3n2)cc1 [Compound 8, Quinolin-2-yl-(4-trifluoromethoxy-phenyl)-amine] | 3.35
c1ccc(Nc2cnc3ccccc3c2)nc1 [Compound 9, Pyridin-2-yl-quinolin-3-yl-amine] | 2.47
COc1cccnc1Nc1cnc2ccccc2c1 [Compound 10, (3-Methoxy-pyridin-2-yl)-quinolin-3-yl-amine] | 2.01
Cc1ccc(Nc2cnc3ccccc3c2)nc1 [Compound 13, (5-Methyl-pyridin-2-yl)-quinolin-3-yl-amine] | 3.46
FC(F)(F)c1ccc(Nc2ccc3ncccc3c2)nc1 [Compound 15, Quinolin-6-yl-(5-trifluoromethyl-pyridin-2-yl)-amine] | 2.17
Cc1cccc(Nc2ccc3ncccc3c2)n1 [Compound 16, (6-Methyl-pyridin-2-yl)-quinolin-6-yl-amine] | 4.56
Cc1cccc(Nc2ccc3ccccc3n2)n1 [Compound 17, N-(6-methylpyridin-2-yl)quinolin-2-amine] | 3.66
Cc1cccc(Nc2ccc3cccc(Cl)c3n2)n1 [Compound 18, 8-chloro-N-(6-methylpyridin-2-yl)quinolin-2-amine] | 2.85
Cc1ccnc(Nc2ccc3cc(Cl)ccc3n2)c1 [Compound 25, 6-chloro-N-(4-methylpyridin-2-yl)quinolin-2-amine] | 3.49
Cc1cccc(Nc2ccc3cc(Cl)ccc3n2)n1 [Compound 26, 6-chloro-N-(6-methylpyridin-2-yl)quinolin-2-amine] | 6.2
O=[N+]([O-])c1cccnc1Nc1ccc2ccccc2n1 [Compound 28, N-(3-nitropyridin-2-yl)quinolin-2-amine] | 2.99
Cc1cccnc1Nc1ccc2ccccc2n1 [Compound 31, N-(3-methylpyridin-2-yl)quinolin-2-amine] | 5.07
Cc1ccc(Nc2ccc3ccccc3n2)nc1 [Compound 32, N-(5-methylpyridin-2-yl)quinolin-2-amine] | 2.96
N#Cc1ccnc(Nc2ccc3ccccc3n2)c1 [Compound 33, 2-(quinolin-2-ylamino)isonicotinonitrile] | 2.14
FC(F)(F)c1ccc(Nc2ccc3ccccc3n2)nc1 [Compound 34, N-(5-(trifluoromethyl)pyridin-2-yl)quinolin-2-amine] | 4.18
Cc1cccnc1Nc1ccc2cccc(Cl)c2n1 [Compound 35, 8-chloro-N-(3-methylpyridin-2-yl)quinolin-2-amine] | 2.74
Cc1ccc(Nc2ccc3cccc(Cl)c3n2)nc1 [Compound 36, 8-chloro-N-(5-methylpyridin-2-yl)quinolin-2-amine] | 3.06
COc1cccnc1Nc1ccc2ccccc2n1 [Compound 38, N-(3-methoxypyridin-2-yl)quinolin-2-amine] | 5.81

Structure (SMILES) | fold induction at 5 µM
O=[N+]([O-])c1ccc(Nc2ccc3ccccc3n2)nc1 [Compound 39, N-(5-nitropyridin-2-yl)quinolin-2-amine] | 4.29
Fc1ccc(Nc2ccc3ccccc3n2)nc1 [Compound 41, N-(5-fluoropyridin-2-yl)quinolin-2-amine] | 3.32
FC(F)(F)c1cccc(Nc2ccc3ccccc3n2)n1 [Compound 42, N-(6-(trifluoromethyl)pyridin-2-yl)quinolin-2-amine] | 3.87
COC(=O)c1ccc(Nc2ccc3ccccc3n2)nc1 [Compound 59, methyl 6-(quinolin-2-ylamino)nicotinate] | 2.49
COC(=O)c1ccc(Nc2nc3ccccc3cc2C)nc1 [Compound 61, methyl 6-[(3-methylquinolin-2-yl)amino]pyridine-3-carboxylate] | 2.04
FC(F)(F)Oc1cccc(Nc2ccc3ccccc3n2)c1 [Compound 83, N-[3-(trifluoromethoxy)phenyl]quinolin-2-amine] | 2.74
c1ccc(Oc2ccc(Nc3ccc4ccccc4n3)cc2)cc1 [Compound 102, N-(4-phenoxyphenyl)quinolin-2-amine] | 2.06
Cc1cccc(Nc2cnc3ccccc3c2)n1 [Compound 105, N-(6-methylpyridin-2-yl)quinolin-3-amine] | 3.25
Cc1ccc(Nc2ccc3ncccc3c2)nc1 [Compound 107, N-(5-methylpyridin-2-yl)quinolin-6-amine] | 2.2
COc1cccnc1Nc1ccc2ncccc2c1 [Compound 108, N-(3-methoxypyridin-2-yl)quinolin-6-amine] | 4.57
c1ccc2nc(Nc3cnccn3)ccc2c1 [Compound 113, N-(pyrazin-2-yl)quinolin-2-amine] | 2.28
c1ccc2nc(Nc3ccncc3)ccc2c1 [Compound 120, N-(pyridin-4-yl)quinolin-2-amine] | 2.38
COc1ccc(Nc2cnc3ccccc3c2)cc1 [Compound 123, N-(4-methoxyphenyl)quinolin-3-amine] | 2.94
Cc1cc(OC(F)(F)F)ccc1Nc1cnc2ccccc2n1 [Compound 125, N-[2-methyl-4-(trifluoromethoxy)phenyl]quinoxalin-2-amine] | 2.59
c1cnc(Nc2ccc3ccccc3n2)nc1 [Compound 128, N-(pyrimidin-2-yl)quinolin-2-amine] | 3.08
c1ccc(Nc2cnc3ccccc3n2)nc1 [Compound 135, N-(pyridin-2-yl)quinoxalin-2-amine] | 4.58
N#Cc1ccc(Nc2cnc3ccccc3n2)nc1 [Compound 137, 6-(quinoxalin-2-ylamino)pyridine-3-carbonitrile] | 4.64
Cc1cccc(Nc2cnc3ccccc3n2)n1 [Compound 138, N-(6-methylpyridin-2-yl)quinoxalin-2-amine] | 8.22
c1cnc(Nc2cnc3ccccc3n2)nc1 [Compound 142, N-(pyrimidin-2-yl)quinoxalin-2-amine] | 4.47
COc1ccnc2cc(Nc3ccccn3)ccc12 [Compound 145, 4-methoxy-N-(pyridin-2-yl)quinolin-7-amine] | 3.87
COc1ccnc2cc(Nc3cc(C)ccn3)ccc12 [Compound 146, 4-methoxy-N-(4-methylpyridin-2-yl)quinolin-7-amine] | 4.18
Cc1ccnc(Nc2ccc3c(N(C)C)ccnc3c2)c1 [Compound 147, 4-N,4-N-dimethyl-7-N-(4-methylpyridin-2-yl)quinoline-4,7-diamine] | 2.94
